Experimental data: US5559145A, “1,2,4-trioxane derivatives” (priority 1995, dated 1996)

Key:
[1] = test system: Onchocerca gutturosa; test: Activity against Onchocerca gutturosa assessed by motility (parasites, medium, serum, cells and test drugs); type: cell-based; set-up: reduction of motility: concentration or dose not given beside the values; conditions: with cells
Description: Testing in vitro against Onchocerca gutturosa is a valid model for activity against Onchocerca volvulus.
(§1) Testing of test drugs (Compounds 1, 2, 3, 4, 5, 7, 8, 9, 11, and 12 of Table 1 ) against the parasitic worms Onchocerca gutturosa was carried out in accordance with the method described in J Helminth (1987) 60, 271, firstly using parasites, medium, serum, cells and test drugs.

[2] = test system: T. gondii; test: Activity against T. gondii within HeLa cells, assessed by light microscopy; type: cell-based, Toxoplasma gondii (in HeLa (ATCC CCL2) cells); conditions: for Mean T. gondii per infected vacuole: HeLa (no drug: 8.1); for % infected cells: HeLa (no drug: 49); for T. gondii per 100 cells: HeLa (no drug: 620); for block of parasite growth: in words, HeLa cells
Description: Confluent epithelium-like HeLa (ATCC CCL2) cell monolayers growing on 6-well plastic multidish (9.6 cm^2, Nunc, Roskilde, Denmark) were used. After washing with HBSS, the monolayers were infected with 3×10^6 ml^-1 T. gondii in M199-3% FCS (total amount per well, 3 ml) for 1 h, washed twice with HBSS, and the drugs were added with M199-10% FCS over 22 h. Monolayers were then fixed, Giemsa-stained and-assessed by light microscopy.

[3] = test system: T. gondii; test: Activity against T. gondii within macrophages, assessed by light microscopy; type: cell-based, Toxoplasma gondii (in murine peritoneal macrophages); set-up: % infected cells / Mean T. gondii per infected vacuole / T. gondii per 100 cells: dose or concentration left out as unconfirmed; conditions: for Mean T. gondii per infected vacuole: macrophages (no drug: 4.3); for % infected cells: macrophages (no drug: 42); for T. gondii per 100 cells: macrophages (no drug: 191); for activity compared with pyrimethamine and pyrimethamine + sulfadiazine / inhibition of the intracellular growth of toxoplasma: in words, at respective IC90 values
Description: Unelicited murine peritoneal macrophages obtained by washing the peritoneal cavities of Swiss-Webster mice with 3 ml of Hanks' Balanced Salt Solution (HBSS) (4° C.) containing 5 U ml of heparin were purified by centrifugation in Ficoll-Paque (Pharmacia) 500×g for 15 min, pooled and suspended in medium 199 (M199) containing 10% heat-inactivated (56° C. for 60 min) fetal calf serum (FCS). An amount of […] was seeded into each well of 96-well dishes (Costar) and allowed to adhere during 2-3 h at 37° C. in an 5% CO2 -95% air atmosphere. The nonadherent cells were removed by washing twice with prewarmed HBSS and challenged with 3 ×10 tachyzoites of the RG strain of […] in M199-3% FCS for 1 h. After washing twice with HBSS, the infected monolayers received the test drugs (Compounds 1 to 10 of Table 1) at various concentrations in M199-10% FCS. The monolayers were then pulsed with […] of [3H]uracil (Amersham) during a period of 18 h. The acid-precipitable radioactivity on each well was counted by using a filtration procedure and the IC90 was calculated by probit analysis.
2×10^6 of the macrophage cells were seeded into each chamber of four-chamber glass slides (Lab-Tek). After removing nonadherent cells with HBSS, the monolayers were infected with 2×10^6 T. gondii for 1 h followed by addition of the drugs with the media over 18 h. Monolayers were fixed with 0.4% 9-aminoacridine (50% ethanol-water vol/vol), Giemsa-stained, and assessed by light microscopy. The results are shown in the following Table 6, including results of control compounds: […]

[4] = test system: Onchocerca gutturosa; test: Activity against Onchocerca gutturosa assessed by motility (parasites, medium and drug); type: cell-based; conditions: for effect on worm motility: in words; for effect on worm motility / motility: without cells
Description: as §1
Secondly, test drugs (Compounds 2, 3, 4, 7,. 8, 9 and 12 of Table 1) were tested using parasites, medium and drug. […] Under these conditions, commercial anti-helminthic drugs and artemisinin also cut motility by some 30-40%.

[5] = test system: Onchocerca gutturosa; test: Activity against Onchocerca gutturosa, tetrazolium colorimetric test (parasites, medium, cells and test drug); type: cell-based; conditions: with cells; for inhibition at 50 µM: Onchocerca gutturosa, 5×10^-5 M, read-out: inhibition of formazan formation
Description: (§2) A suitable colorimetric assay uses formation of formazan, a blue dye, from tetrazolium cation generated by 3-[…] bromide (J Helminth (1987) 60, 271). Firstly, Compounds 1, 2, 4, 5, 7, 8, 9, 11 and 12, along with artemisinin and arteether were tested using parasites, medium, cells and test drug.

[6] = test system: in vitro mitogenic assay; mixed lymphocyte reaction; test: Immunomodulatory activity (in vitro mitogenic assay; mixed lymphocyte reaction); type: cell-based; conditions: in words
Description: Several of the compounds mentioned in Examples 1 to 17 were also tested for immunomodulatory activity (in vitro mitogenic assay; mixed lymphocyte reaction).

[7] = test system: Onchocerca gutturosa; test: Activity against Onchocerca gutturosa, tetrazolium colorimetric test (parasites, medium and test drugs); type: cell-based; conditions: without cells
Description: as §2
Secondly, Compounds 2, 3, 4, 7, 8, 9, and 12, artemisinin and arteether were tested using parasites, medium and test drugs.

[8] = test system: chloroquine-resistant strains of P. falciparum; conditions: in words; background, Science 228, 1049 (1985); cited from earlier work
[9] = in words, 7 days, after an induction period
[10] = in words, two to three days exposure

C1=C(c2ccccc2)C[C@@]2(c3ccccc3)OOC3(CCCC3)O[C@@H]12 (relative stereo) [Compound 1 (Table 4)]
reduction of motility ([1]; after 7 days): 100%
effect on worm motility [1, 9]: completely stopped morality
Mean T. gondii per infected vacuole ([2]; 6.8 mg ml^-1, 22 h): 1.8
% infected cells ([2]; 6.8 mg ml^-1, 22 h): 23%
T. gondii per 100 cells ([2]; 6.8 mg ml^-1, 22 h): 46
block of parasite growth [2]: able to block parasite growth
Mean T. gondii per infected vacuole ([3]; 6.8, 18 h): 1.6
% infected cells ([3]; 6.8, 18 h): 19%
T. gondii per 100 cells ([3]; 6.8, 18 h): 38
activity compared with pyrimethamine and pyrimethamine + sulfadiazine [3]: comparable to that of pyrimethamine, and pyrimethamine in combination with sulfadiazine
inhibition of the intracellular growth of toxoplasma [3]: confirmed the inhibition of the intracellular growth of toxoplasma

CC1(C)OO[C@]2(c3ccccc3)CC(c3ccccc3)=C[C@@H]2O1 (relative stereo) [Compound 5 (Table 4)]
reduction of motility ([1]; after 7 days): 100%
effect on worm motility ([1]; in words, one day exposure): significantly effective

O[C@@H]1C(c2ccccc2)=C[C@@]2(c3ccccc3)OOC3(CCCCC3)O[C@@H]12 (relative stereo) [Compound 9 (Table 4)]
reduction of motility ([1]; after 7 days): 100%
effect on worm motility ([1]; in words, one day exposure): immediately immobilized worms in less than a day
effect on worm motility [1, 10]: markedly inhibitory
effect on worm motility ([4]; after one day): immediate response
inhibition at 50 µM [5]: > 90%

CC1(C)OO[C@@]2(c3ccc(Cl)cc3)CC(c3ccc(Cl)cc3)=C[C@H]2O1 (relative stereo) [Compound 6]
immunomodulatory activity [6]: most important activity

Cc1ccc(C2=C[C@@]3(c4ccc(C)cc4)OOC4(CCCCC4)O[C@H]3C2=O)cc1 (relative stereo) [Compound 11 (Table 4)]
reduction of motility ([1]; after 7 days): 100%
effect on worm motility ([1]; in words, one day exposure): significantly effective
inhibition at 50 µM [5]: > 90%

C1=C(c2ccccc2)C[C@@]2(c3ccccc3)OOC3(CCSCC3)O[C@@H]12 (relative stereo) [Compound 2 (Table 4)]
reduction of motility ([1]; after 7 days): 100%
effect on worm motility [1, 10]: markedly inhibitory
Mean T. gondii per infected vacuole ([2]; 5.3 mg ml^-1, 22 h): 1.3
% infected cells ([2]; 5.3 mg ml^-1, 22 h): 23%
T. gondii per 100 cells ([2]; 5.3 mg ml^-1, 22 h): 38
block of parasite growth [2]: able to block parasite growth
motility ([4]; after 2-3 days): less than 1
Mean T. gondii per infected vacuole ([3]; 5.3, 18 h): 1.2
% infected cells ([3]; 5.3, 18 h): 14%
T. gondii per 100 cells ([3]; 5.3, 18 h): 35
activity compared with pyrimethamine and pyrimethamine + sulfadiazine [3]: comparable to that of pyrimethamine, and pyrimethamine in combination with sulfadiazine
inhibition of the intracellular growth of toxoplasma [3]: confirmed the inhibition of the intracellular growth of toxoplasma

C1=C(c2ccccc2)C[C@@]2(c3ccccc3)OOC3(CCOCC3)O[C@@H]12 (relative stereo) [Compound 3 (Table 4)]
effectiveness in the motility test ([1]; in words, overall): not so effective
effect on worm motility ([4]; after 2-3 days): performed poorly

CC1(C)OO[C@]2(c3ccccc3)CCC(c3ccccc3)=C[C@@H]2O1 (relative stereo) [Compound 12 (Table 4)]
reduction of motility ([1]; after 7 days): 100%
effect on worm motility [1, 10]: markedly inhibitory
motility ([4]; after 2-3 days): less than 1
inhibition at 50 µM [5]: > 90%

CCO[C@H]1O[C@@H]2O[C@@]3(C)CC[C@H]4[C@H](C)CC[C@@H]([C@H]1C)[C@@]24OO3 [arteether, reference compound]
reduction of motility ([1]; after a day, 1440 min): 30%
inhibition of formazan formation ([7]; in words): ineffective
motility ([4]; after 4 days): 4
motility ([4]; after 7 days): 2
inhibition of formazan formation [5]: about 40%

O[C@@H]1C(c2ccccc2)=C[C@@]2(c3ccccc3)OOC3(CCCC3)O[C@@H]12 (relative stereo) [Compound 8 (Table 4)]
reduction of motility ([1]; after 7 days): 100%
effect on worm motility [1, 10]: markedly inhibitory
effect on worm motility ([4]; after one day): immediate response

CCc1nc(N)nc(N)c1-c1ccc(Cl)cc1 [P, pyrimethamine, reference compound]
Mean T. gondii per infected vacuole ([3]; 1, 18 h): 1.2
% infected cells ([3]; 1, 18 h): 14%
T. gondii per 100 cells ([3]; 1, 18 h): 33

O=C1C(c2ccccc2)=C[C@@]2(c3ccccc3)OOC3(CCCCC3)O[C@@H]12 (relative stereo) [Compound 6 (Table 4)]
Mean T. gondii per infected vacuole ([3]; 54, 18 h): 1.9
% infected cells ([3]; 54, 18 h): 20%
T. gondii per 100 cells ([3]; 54, 18 h): 43
activity compared with pyrimethamine and pyrimethamine + sulfadiazine [3]: comparable to that of pyrimethamine, and pyrimethamine in combination with sulfadiazine
inhibition of the intracellular growth of toxoplasma [3]: confirmed the inhibition of the intracellular growth of toxoplasma

O=C1CCC2(CC1)OO[C@]1(c3ccccc3)CC(c3ccccc3)=C[C@@H]1O2 (relative stereo) [Compound 4 (Table 4)]
reduction of motility ([1]; after 7 days): 100%
effect on worm motility ([1]; in words, one day exposure): significantly effective
effect on worm motility ([4]; after one day): immediate response

C1=C(c2ccccc2)C[C@]2(c3ccccc3)OOC3(CCOCC3)O[C@H]12 (relative stereo) [Compound 12]
immunomodulatory activity [6]: most important activity

O[C@@H]1C(c2ccccc2)=C[C@@]2(c3ccccc3)OOC3(CCOCC3)O[C@@H]12 (relative stereo) [Compound 7 (Table 4)]
reduction of motility ([1]; after 7 days): 100%
effect on worm motility [1, 9]: completely stopped morality
motility ([4]; after 2-3 days): less than 1

C[C@@H]1CC[C@H]2[C@@H](C)C(=O)O[C@@H]3O[C@@]4(C)CC[C@@H]1[C@]32OO4 [artemisinin, reference compound]
activity of Qinghaosu against chloroquine-resistant strains [8]: remarkably active
effect on worm motility ([1]; in words, one day exposure): ineffective
inhibition of formazan formation [7]: about 25%
reduction of motility ([4]; without cells ("under these conditions")): 30-40%
inhibition of formazan formation ([5]; in words): ineffective
